Data: the CheMixHub viscosity set
± gives the uncertainty stated by the source.

Test: xn = mol fraction of the nth substance listed

O=C(O)c1ccccc1 + CC(C)O
viscosity [mPa·s], 101 kPa
Conditions	x1 = 0.000601	x1 = 0.00181	x1 = 0.00276	x1 = 0.0042	x1 = 0.00508	x1 = 0.005992
298.15 K	2.579 ± 0.52	2.574 ± 0.52	2.569 ± 0.52	2.562 ± 0.52	2.559 ± 0.52	2.556 ± 0.52
308.15 K	1.932 ± 0.39	1.927 ± 0.39	1.922 ± 0.39	1.916 ± 0.39	1.914 ± 0.39	1.912 ± 0.39
318.15 K	1.496 ± 0.3	1.49 ± 0.3	1.486 ± 0.3	1.481 ± 0.3	1.479 ± 0.3	1.477 ± 0.3

CC(=O)C(=O)O + CC(C)[C@@H]1CC[C@@H](C)C[C@H]1O
100 kPa, x2 = 0.67
Conditions	viscosity [mPa·s]
293.15 K	44.64 ± 0.96
298.15 K	29.95 ± 0.65
303.15 K	21.24 ± 0.46
308.15 K	15.67 ± 0.34
313.15 K	11.88 ± 0.26
318.15 K	9.36 ± 0.2
323.15 K	7.511 ± 0.16

COC(C)=O + CC(O)CO
Conditions	viscosity [mPa·s]
298.15 K, 101 kPa, x1 = 0.251	12.35 ± 0.2

COc1ccccc1N + CCC(=O)CC
viscosity [mPa·s], 100 kPa
Conditions	x1 = 0.0991	x1 = 0.1998	x1 = 0.2865	x1 = 0.3698	x1 = 0.4502	x1 = 0.5469	x1 = 0.6601	x1 = 0.7965	x1 = 0.8805
303.15 K	0.905 ± 0.038	1.383 ± 0.057	1.793 ± 0.073	2.178 ± 0.089	2.544 ± 0.1	2.98 ± 0.12	3.48 ± 0.14	4.069 ± 0.17	4.425 ± 0.18
308.15 K	0.85 ± 0.036	1.3 ± 0.054	1.681 ± 0.069	2.038 ± 0.083	2.379 ± 0.097	2.784 ± 0.11	3.249 ± 0.13	3.796 ± 0.15	4.123 ± 0.17
313.15 K	0.795 ± 0.033	1.217 ± 0.05	1.569 ± 0.064	1.897 ± 0.077	2.213 ± 0.09	2.586 ± 0.11	3.016 ± 0.12	3.52 ± 0.14	3.819 ± 0.15

COc1ccccc1N + CCC(=O)O
viscosity [mPa·s], 100 kPa
Conditions	x1 = 0.1097	x1 = 0.183	x1 = 0.2628	x1 = 0.3502	x1 = 0.4802	x1 = 0.5897	x1 = 0.6693	x1 = 0.7549	x1 = 0.8961
303.15 K	1.402 ± 0.057	1.697 ± 0.069	2.017 ± 0.082	2.367 ± 0.096	2.884 ± 0.12	3.317 ± 0.14	3.631 ± 0.15	3.967 ± 0.16	4.518 ± 0.18
308.15 K	1.3 ± 0.053	1.575 ± 0.064	1.873 ± 0.076	2.198 ± 0.089	2.679 ± 0.11	3.082 ± 0.12	3.373 ± 0.14	3.685 ± 0.15	4.197 ± 0.17
313.15 K	1.197 ± 0.049	1.452 ± 0.059	1.727 ± 0.07	2.028 ± 0.082	2.472 ± 0.1	2.844 ± 0.12	3.113 ± 0.13	3.401 ± 0.14	3.873 ± 0.16
318.15 K	1.097 ± 0.045	1.333 ± 0.054	1.587 ± 0.065	1.865 ± 0.076	2.275 ± 0.093	2.619 ± 0.11	2.867 ± 0.12	3.132 ± 0.13	3.567 ± 0.14

COc1ccccc1N + CCC(C)=O
viscosity [mPa·s], 100 kPa
Conditions	x1 = 0.0814	x1 = 0.1724	x1 = 0.2543	x1 = 0.3412	x1 = 0.4394	x1 = 0.5191	x1 = 0.6354	x1 = 0.7587	x1 = 0.8677
303.15 K	0.785 ± 0.033	1.225 ± 0.051	1.615 ± 0.066	2.024 ± 0.083	2.477 ± 0.1	2.84 ± 0.12	3.362 ± 0.14	3.906 ± 0.16	4.373 ± 0.18
308.15 K	0.727 ± 0.031	1.145 ± 0.047	1.51 ± 0.062	1.888 ± 0.077	2.31 ± 0.094	2.648 ± 0.11	3.136 ± 0.13	3.642 ± 0.15	4.073 ± 0.17
313.15 K	0.669 ± 0.029	1.064 ± 0.044	1.403 ± 0.057	1.751 ± 0.071	2.142 ± 0.087	2.455 ± 0.1	2.907 ± 0.12	3.376 ± 0.14	3.77 ± 0.15
